Measurements reported in US20020137676A1, “Selective treatment of endothelial somatostatin receptors” (priority 1998, published 2002).
Ends that are not written are not given here.

Tests used:
Assay type in all cases: cell-based, human
[1] = system: ECV304 or HUVEC cells; experiment: Actin cytoskeleton effects of SSTR selective ligands on endothelial cells
Experimental: (§1) The cells were subsequently incubated at 37° C. for 30 min, fixed in 4% PFA for 5 min and washed in PBS. The actin cytoskeleton was visualized by incubating the cells with ALEXA-488 conjugated phalloidin (1:50, Molecular Probes Inc., Eugene, Oreg.) for 15 min at room temperature. Cells were screened using a Zeiss Axiophot microscope as previously described. Similar protocols were used to evaluate the effects SSTR1 selective ligands on endothelial cells.

[2] = system: ECV304 cells; experiment: Actin cytoskeleton visualised with fluorescently labelled phalloidin; conditions: 10 nM, 37° C. for 30 min
Experimental: as §1

[3] = system: ECV304 cells; experiment: ECV304/Matrigel in vitro angiogenesis model (capillary-like tube formation); conditions: sub-micromolar and higher concentrations; ECV304 on Matrigel
Excerpt: In one aspect, the present invention utilises an established model system for assaying the effect of SSTR ligands on human angiogenesis. In one embodiment, the model system comprises the spontaneously transformed human umbilical vein endothelial cell line, ECV304, grown on a Matrigel substrate (Hughes, 1996, Experimental Cell Research 225:171-185). Matrigel is a solubilized basement membrane extract that promotes the differentiation of endothelial cells into capillary tube-like structures in vitro. It has been shown that cytoskeletal reorganization occurs when human umbilical vein endothelial cells undergo the morphological changes associated with neovascular tube formation on a Matrigel substrate (Grant et al., 1991, In Vitro Cell Dev. Biol. 27A(4):327-36.). […] This assay can also be used to identify […] ligands that stimulate the process of angiogenesis. […]
ECV304 cells (3.5×10^4 in 0.5 mL complete M199 medium) were placed onto 24-well plates that were pre-coated with 0.125 mL of Matrigel (Becton-Dickinson). […] After 24 hours, images of tube-formation were recorded on film. Images were converted into a digital format using a Hewlett-Packard ScanJet 4C/T scanner, the summed length of capillary-like tubes was quantified using Optimas 6.1 image analysis software (Optimas Corp.).

[4] = system: Na/H exchanger on ECV304 cells; experiment: Intracellular pH imaging of the Na/H exchanger

## des-AA^1,2,5 [DTrp^8,IAamp^9]SS [SSTR1 '499 agonist]
[1]
  actin stress fibres: decrease in stress fibres
  lamellipodia formation: increase in lamellipodia formation

## Somatostatin-14 (AGCKNFFWKTFTSC; ends and bridges not checked; cysteine pairing not given here; UniProt P61278 103-116, looked up) [SS14, native 14 amino acid form of somatostatin, an endogenous cyclic peptide; agonist of all somatostatin receptor subtypes]
[2]
  actin stress fibres: loss of long stress fibers
  lamellipodia at the plasma membrane: increase in the number and size of lamellipodia
[3]
  inhibition of neovascular growth: significantly inhibit neovascular growth
[4]
  effect on Na/H exchanger: inhibit
